Target: T1, Y71E mutant EAG1 channels (Mus musculus, UniProt Q60603, Y71E)
T1 construct: expressed in transfected cells; host or cells: Xenopus laevis oocytes injected with cRNA
T1 sequence (Q60603 1-989 Y71E): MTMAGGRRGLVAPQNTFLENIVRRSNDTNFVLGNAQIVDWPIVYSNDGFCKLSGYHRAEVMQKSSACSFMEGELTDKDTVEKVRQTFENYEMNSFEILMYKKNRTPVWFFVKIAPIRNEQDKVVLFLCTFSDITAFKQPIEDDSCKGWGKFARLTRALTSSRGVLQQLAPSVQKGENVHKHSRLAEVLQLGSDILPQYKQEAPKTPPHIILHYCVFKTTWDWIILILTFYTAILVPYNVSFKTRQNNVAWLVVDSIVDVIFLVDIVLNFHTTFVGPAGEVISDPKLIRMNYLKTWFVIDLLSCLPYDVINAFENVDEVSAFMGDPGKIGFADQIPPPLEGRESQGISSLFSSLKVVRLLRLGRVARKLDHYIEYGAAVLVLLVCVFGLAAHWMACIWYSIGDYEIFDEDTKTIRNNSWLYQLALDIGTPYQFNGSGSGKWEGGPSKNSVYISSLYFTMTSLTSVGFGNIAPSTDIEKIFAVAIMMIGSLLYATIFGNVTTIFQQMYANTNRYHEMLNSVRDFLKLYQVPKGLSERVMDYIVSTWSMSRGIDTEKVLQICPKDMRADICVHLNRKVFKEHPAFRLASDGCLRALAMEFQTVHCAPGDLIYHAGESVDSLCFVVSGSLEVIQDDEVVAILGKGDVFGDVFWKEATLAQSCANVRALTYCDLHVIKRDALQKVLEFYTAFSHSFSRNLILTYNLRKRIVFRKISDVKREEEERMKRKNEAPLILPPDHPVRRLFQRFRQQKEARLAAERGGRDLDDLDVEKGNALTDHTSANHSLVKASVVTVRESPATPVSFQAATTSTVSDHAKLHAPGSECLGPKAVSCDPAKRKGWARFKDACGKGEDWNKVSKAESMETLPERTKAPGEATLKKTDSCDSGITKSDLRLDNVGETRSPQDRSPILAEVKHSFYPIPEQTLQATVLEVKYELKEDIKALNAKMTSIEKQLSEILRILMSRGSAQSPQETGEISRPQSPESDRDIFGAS
Assay: TEVC recording, imipramine inhibition, Y71E mutant
Type: cell-based
Settings: Y71E mutant EAG1 channel, +50 mV
From the text: The cDNA encoding wild-type (WT) mouse EAG1 channels in pGH19 vector was kindly provided by G. Robertson (University of Wisconsin-Madison, Madison, WI). The mutant ΔPAS EAG1 channel in pGH19 with the deletion of the PAS domain residues 2 to 130 was generated by Bio Basic Inc and verified by DNA sequencing (Genewiz). Mutant EAG1 channels with single amino acid substitutions were generated by Genewiz and verified by DNA sequencing. cRNA was transcribed using the T7 mMessage mMachine kit (Thermo Fisher Scientific). Defolliculated Xenopus laevis oocytes were purchased from Ecocyte Bioscience or Xenopus1 and injected with the cRNA using a Nanoinject II oocyte injector (Drummond).
For EAG1 current recordings, oocytes were placed into a handmade chamber containing a bath solution for the current recording. The currents were recorded using a TEVC technique with OC-725C amplifier (Warner Instruments) and pClamp11 software (Molecular Devices). The signals were digitized using Digidata 1550 (Molecular Devices). Patch pipettes were pulled from borosilicate glass and had resistances of 0.7 to 1.5 MΩ. The recording (bath) solution contained 96 mM NaCl, 4 mM KCl, 0.1 mM CaCl2, 1.8 mM MgCl2, and 5 mM HEPES, pH 7.5. The pipette solution contained 3 M KCl. […]

With `CN(C)CCCN1c2ccccc2CCc2ccccc21` [imipramine] the IC50 was 28.5 ± 1.4 µM.

Reference: paper PMC10687071 (The Journal of Biological Chemistry, 2023)
